Drawing on US9850283B2, “Macrocyclic inhibitors of the PD-1/PD-L1 and CD80(B7-1)/PD-L1 protein/protein interactions” (BRISTOL-MYERS SQUIBB COMPANY, priority 2013, dated 2017), this text covers IC50 for six compounds.

Structures are written as SMILES. Positions of bridges follow the written chain, without caps; N, C: chain ends. Non-standard residues stand in square brackets, D forms with d. Residues, ends and D or L forms follow the SMILES beside them. ξ: configuration not given here. Bta = N[C@@H](Cc1csc2ccccc12)C(=O)O; Hyp = O=C(O)[C@@H]1C[C@@H](O)CN1; NMeNle = CCCC[C@H](NC)C(=O)O; NMeA = CN[C@@H](C)C(=O)O; ξC = NC(CS)C(=O)O

The target in assay [1] is T1, LK35.2-hPD-L1 cells / PE-labeled PD-1-Ig (Homo sapiens, UniProt Q9NZQ7).
T1 construct: expressed in transfected cells; host or cells: LK35.2 mouse B cell line
T1 sequence (Q9NZQ7 19-290): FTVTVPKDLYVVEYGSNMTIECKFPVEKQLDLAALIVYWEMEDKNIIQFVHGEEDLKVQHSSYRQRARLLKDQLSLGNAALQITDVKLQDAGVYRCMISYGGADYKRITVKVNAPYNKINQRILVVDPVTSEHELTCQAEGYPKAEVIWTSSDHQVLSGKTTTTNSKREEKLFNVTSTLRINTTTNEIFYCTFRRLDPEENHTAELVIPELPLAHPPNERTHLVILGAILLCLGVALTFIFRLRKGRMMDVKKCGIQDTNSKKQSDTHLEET
As to the kind of experiment: LK35.2-hPD-L1 cell binding high-content screening assay. It counts as cell-based. Conditions: cell binding assay, cell line not given; cluster symbol; read-out: CBA IC50 cluster. The essentials:
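Binding of PE-conjugated human PD-1-Ig (1 nM final) to human PD-L1 stably expressed on a mouse B-cell line (LK35.2) was measured by high-content imaging after washes. Compound and labeled PD-1-Ig were co-incubated 1 h at 37 °C with cells in RPMI/10% FCS.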

The target in a further assay is T2, Human PD-L1/PD-1 (Homo sapiens, UniProt Q9NZQ7).
T2 construct: made in house; host or cells: HEK293T
T2 sequence (Q9NZQ7 with tags, fused parts or gaps): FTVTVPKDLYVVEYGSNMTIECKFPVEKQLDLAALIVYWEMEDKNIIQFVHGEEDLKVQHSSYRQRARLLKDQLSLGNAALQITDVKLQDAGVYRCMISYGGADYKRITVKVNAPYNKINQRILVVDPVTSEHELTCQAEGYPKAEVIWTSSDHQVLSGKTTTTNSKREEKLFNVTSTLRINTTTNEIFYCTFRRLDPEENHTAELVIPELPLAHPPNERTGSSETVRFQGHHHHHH
As to the kind of experiment: HTRF PD-1-Ig/PD-L1-His binding assay (human PD-L1). The conditions noted are these: cluster symbol; read-out: HTRF IC50 cluster. Put shortly:
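The time-resolved fluorescence signal comes from Eu-cryptate anti-Ig (1 nM) and APC anti-His (20 nM) antibodies bound to a PD-1-Ig/PD-L1-His complex. Both partners lack transmembrane regions.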

For the compound `CCCC[C@H]1C(=O)N(C)[C@@H](CCCC)C(=O)N[C@@H](CCCNC(=N)N)C(=O)NC(C(=O)NCC(N)=O)CSCC(=O)N[C@@H](Cc2ccc(O)cc2)C(=O)N(C)[C@@H](C)C(=O)N[C@@H](CC(N)=O)C(=O)N2CCC[C@H]2C(=O)N[C@@H](CC(N)=O)C(=O)N[C@@H](CC(C)C)C(=O)N2C[C@H](O)C[C@H]2C(=O)N[C@@H](Cc2c[nH]c3ccccc23)C(=O)N[C@@H](CO)C(=O)N[C@@H](Cc2c[nH]c3ccccc23)C(=O)N1C` (stereo partly drawn) [Example 9061] ({CH2CO}-Y[NMeA]NPNL[Hyp]WSW[NMeNle][NMeNle]R[ξC]G-NH2; thioether N-14), the IC50 in assay [1] is 0.158 to 4.71 nM; on Human PD-L1/PD-1 it was 0.385 to 6.74 nM.
On the same counts, the results for `CCCC[C@H]1C(=O)N(C)[C@@H](CCCC)C(=O)N[C@@H](CCCNC(=N)N)C(=O)NC(C(=O)NCC(N)=O)CSCC(=O)N[C@@H](Cc2ccc(O)cc2)C(=O)N(C)[C@@H](C)C(=O)N[C@@H](CC(N)=O)C(=O)N2CCC[C@H]2C(=O)N[C@@H](CC(N)=O)C(=O)N[C@@H](CC(C)C)C(=O)N2C[C@H](O)C[C@H]2C(=O)N[C@@H](Cc2c[nH]c3ccccc23)C(=O)N[C@@H](CO)C(=O)N[C@@H](Cc2csc3ccccc23)C(=O)N1C` (stereo partly drawn) [Example 9062] ({CH2CO}-Y[NMeA]NPNL[Hyp]WS[Bta][NMeNle][NMeNle]R[ξC]G-NH2; thioether N-14) are 0.158 to 4.71 nM and 0.385 to 6.74 nM.
As to `CCCC[C@H]1C(=O)N(C)[C@@H](CCCC)C(=O)N[C@@H](CCCNC(=N)N)C(=O)NC(C(=O)NCC(N)=O)CSCC(=O)N[C@@H](Cc2ccc(O)cc2)C(=O)N(C)[C@@H](C)C(=O)N[C@@H](CC(N)=O)C(=O)N2CCC[C@H]2C(=O)N[C@@H](Cc2cnc[nH]2)C(=O)N[C@@H](CC(N)=O)C(=O)N2CCC[C@H]2C(=O)N[C@@H](Cc2c[nH]c3ccccc23)C(=O)N[C@@H](CO)C(=O)N[C@@H](Cc2c[nH]c3ccccc23)C(=O)N1C` (stereo partly drawn) [Example 9063] ({CH2CO}-Y[NMeA]NPHNPWSW[NMeNle][NMeNle]R[ξC]G-NH2; thioether N-14), the IC50 fell in the range of 0.158 to 4.71 nM in assay [1] and 0.385 to 6.74 nM at Human PD-L1/PD-1.
With `CCCC[C@H]1C(=O)N(C)[C@@H](CCCC)C(=O)N[C@@H](CCCNC(=N)N)C(=O)NC(C(=O)NCC(N)=O)CSCC(=O)N[C@@H](Cc2ccc(O)cc2)C(=O)N(C)[C@@H](C)C(=O)N[C@@H](CC(N)=O)C(=O)N2CCC[C@H]2C(=O)N[C@@H](Cc2cnc[nH]2)C(=O)N[C@@H](CC(N)=O)C(=O)N2CCC[C@H]2C(=O)N[C@@H](Cc2c[nH]c3ccccc23)C(=O)N[C@@H](CO)C(=O)N[C@@H](Cc2csc3ccccc23)C(=O)N1C` (stereo partly drawn) [Example 9064] ({CH2CO}-Y[NMeA]NPHNPWS[Bta][NMeNle][NMeNle]R[ξC]G-NH2; thioether N-14), the IC50 in assay [1] was in the range of 0.158 to 4.71 nM; at Human PD-L1/PD-1 it was 0.385 to 6.74 nM.
For the compound `CCCC[C@H]1C(=O)N(C)[C@@H](CCCC)C(=O)N[C@@H](CCCNC(=N)N)C(=O)NC(C(=O)NCC(N)=O)CSCC(=O)N[C@@H](Cc2ccc(O)cc2)C(=O)N(C)[C@@H](C)C(=O)N[C@@H](CC(N)=O)C(=O)N2CCC[C@H]2C(=O)N[C@@H](Cc2cnc[nH]2)C(=O)N[C@@H](CC(N)=O)C(=O)N2C[C@H](O)C[C@H]2C(=O)N[C@@H](Cc2c[nH]c3ccccc23)C(=O)N[C@@H](CO)C(=O)N[C@@H](Cc2c[nH]c3ccccc23)C(=O)N1C` (stereo partly drawn) [Example 9065] ({CH2CO}-Y[NMeA]NPHN[Hyp]WSW[NMeNle][NMeNle]R[ξC]G-NH2; thioether N-14), the figures for the IC50 (in assay [1]; at Human PD-L1/PD-1) were 0.158 to 4.71 nM and 0.385 to 6.74 nM, respectively.
For `CCCC[C@H]1C(=O)N(C)[C@@H](CCCC)C(=O)N[C@@H](CCCNC(=N)N)C(=O)NC(C(=O)NCC(N)=O)CSCC(=O)N[C@@H](Cc2ccc(O)cc2)C(=O)N(C)[C@@H](C)C(=O)N[C@@H](CC(N)=O)C(=O)N2CCC[C@H]2C(=O)N[C@@H](Cc2cnc[nH]2)C(=O)N[C@@H](CC(N)=O)C(=O)N2C[C@H](O)C[C@H]2C(=O)N[C@@H](Cc2c[nH]c3ccccc23)C(=O)N[C@@H](CO)C(=O)N[C@@H](Cc2csc3ccccc23)C(=O)N1C` (stereo partly drawn) [Example 9066] ({CH2CO}-Y[NMeA]NPHN[Hyp]WS[Bta][NMeNle][NMeNle]R[ξC]G-NH2; thioether N-14) the same measures were 0.158 to 4.71 nM and 0.385 to 6.74 nM.

The term IC50 denotes the concentration at which inhibition is half-maximal.
